ChEMBL document CHEMBL1201862, “PubChem BioAssay data set” (2004)
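The compound was tested at five concentrations on cells cultured in 96-well plates, with a 48-hour exposure period. Abbreviation: GI50, concentration required for 50% inhibition of growth.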 Active and inactive are the calls of the source. Rule as the data show it: active = GI50 up to about 1.1 µM and inactive = higher.

Assays:
Test in all cases: NCI anticancer screen, dose series, 48 h
A549 = test system: A549
BT-549 = test system: BT-549
CAKI-1 = test system: CAKI-1
EKVX = test system: EKVX
HCC 2998 = test system: HCC 2998
HCT-116 = test system: HCT-116
Hs-578T = test system: Hs-578T
M14 = test system: M14
MDA-MB-231 = test system: MDA-MB-231
MDA-MB-435 = test system: MDA-MB-435
MDA-N = test system: MDA-N
NCI-H23 = test system: NCI-H23
OVCAR-3 = test system: OVCAR-3
OVCAR-8 = test system: OVCAR-8
SF-268 = test system: SF-268
SK-MEL-2 = test system: SK-MEL-2
SNB-75 = test system: SNB-75
SW-620 = test system: SW-620
UO-31 = test system: UO-31

In the case of `CCOC(=O)[C@@]1(C(C)=O)CC(C)=C(C)C[S@@+]1[O-]`, the GI50 (A549) is reported as > 100 µM (inactive), the GI50 (BT-549) is reported as > 100 µM (inactive) and the GI50 (CAKI-1) is reported as > 100 µM (inactive). For the same molecule, the GI50 (EKVX) was > 100 µM (inactive), the GI50 (HCC 2998) was > 100 µM (inactive) and the GI50 (HCT-116) was > 100 µM (inactive). For the same molecule, the GI50 (Hs-578T) was > 100 µM (inactive), the GI50 (M14) was > 100 µM (inactive) and the GI50 (MDA-MB-231) was > 100 µM (inactive). The GI50 (MDA-MB-435) was > 100 µM (inactive), the GI50 (MDA-N) was > 100 µM (inactive) and the GI50 (NCI-H23) was > 100 µM (inactive). The GI50 (OVCAR-3) was > 100 µM (inactive), the GI50 (OVCAR-8) was > 100 µM (inactive) and the GI50 (SF-268) was > 100 µM (inactive). For the same molecule, the GI50 (SK-MEL-2) was > 100 µM (inactive), the GI50 (SNB-75) was > 100 µM (inactive) and the GI50 (SW-620) was > 100 µM (inactive). For the same molecule, the GI50 (UO-31) was > 100 µM (inactive).
`C[C@@H](C[C@@H](O)[C@H](O)C(C)(C)O)[C@H]1CC=C2[C@]3(C)[C@H](O)C[C@H]4C(C)(C)[C@H](O)CC[C@]4(C)[C@H]3CC[C@@]21C` was tested, and the GI50 (A549) was 12.7 µM (inactive), the GI50 (BT-549) was 17.1 µM (inactive) and the GI50 (CAKI-1) was 16.4 µM (inactive). For the same molecule, the GI50 (EKVX) was 12.3 µM (inactive), the GI50 (HCC 2998) was 17.3 µM (inactive) and the GI50 (HCT-116) was 16.1 µM (inactive). For the same molecule, the GI50 (Hs-578T) was 22.5 µM (inactive), the GI50 (M14) was 15.1 µM (inactive) and the GI50 (MDA-MB-231) was 13.8 µM (inactive). For the same molecule, the GI50 (MDA-MB-435) was 16.4 µM (inactive), the GI50 (MDA-N) was 15.6 µM (inactive) and the GI50 (NCI-H23) was 17.6 µM (inactive). For the same molecule, the GI50 (OVCAR-3) was 13.3 µM (inactive), the GI50 (OVCAR-8) was 16.1 µM (inactive) and the GI50 (SF-268) was 13.4 µM (inactive). The GI50 (SK-MEL-2) was 14 µM (inactive), the GI50 (SNB-75) was 17.6 µM (inactive) and the GI50 (SW-620) was 17.3 µM (inactive). The GI50 (UO-31) was 15.4 µM (inactive).
With `CCOC(=O)C1C(c2ccc(OC)cc2)c2c(nn(-c3ccccc3)c2O)CC1(C)O` (stereo not given) the GI50 (A549) was 18.9 µM (inactive), the GI50 (BT-549) was 0.0159 µM (active) and the GI50 (CAKI-1) was > 100 µM (inactive). The GI50 (EKVX) was 51.8 µM (inactive), the GI50 (HCC 2998) was 26.4 µM (inactive) and the GI50 (HCT-116) was 17.9 µM (inactive). For the same molecule, the GI50 (Hs-578T) was > 100 µM (inactive), the GI50 (M14) was 11 µM (inactive) and the GI50 (MDA-MB-231) was 59.2 µM (inactive). For the same molecule, the GI50 (MDA-MB-435) was 3.02 µM (inactive), the GI50 (MDA-N) was 3.21 µM (inactive) and the GI50 (NCI-H23) was 43.5 µM (inactive). For the same molecule, the GI50 (OVCAR-3) was 80.4 µM (inactive), the GI50 (OVCAR-8) was 98.2 µM (inactive) and the GI50 (SF-268) was > 100 µM (inactive). The GI50 (SK-MEL-2) was 93.8 µM (inactive), the GI50 (SNB-75) was > 100 µM (inactive) and the GI50 (SW-620) was 18.5 µM (inactive). For the same molecule, the GI50 (UO-31) was 11 µM (inactive).
For `C=C1CC(Cn2cc(C)c(=O)[nH]c2=O)(c2ccc(Cl)cc2)OC1=O` (stereo not given), the GI50 (A549) was 16.6 µM (inactive), the GI50 (BT-549) was 1.51 µM (inactive) and the GI50 (CAKI-1) was 1.83 µM (inactive). For the same molecule, the GI50 (EKVX) was 11.9 µM (inactive), the GI50 (HCC 2998) was 3.8 µM (inactive) and the GI50 (HCT-116) was 1.65 µM (inactive). The GI50 (Hs-578T) was 6.58 µM (inactive), the GI50 (M14) was 1.22 µM (inactive) and the GI50 (MDA-MB-231) was 3.05 µM (inactive). The GI50 (MDA-MB-435) was 3.85 µM (inactive), the GI50 (MDA-N) was 2.99 µM (inactive) and the GI50 (NCI-H23) was 3.3 µM (inactive). The GI50 (OVCAR-3) was 3.6 µM (inactive), the GI50 (OVCAR-8) was 3.64 µM (inactive) and the GI50 (SF-268) was 17.1 µM (inactive). The GI50 (SK-MEL-2) was 2.12 µM (inactive), the GI50 (SNB-75) was 10.7 µM (inactive) and the GI50 (SW-620) was 1.44 µM (inactive). The GI50 (UO-31) was 12.9 µM (inactive).
For `CCOC(=O)/C(C(=O)c1ccc[nH]1)=C1/CCCN1C`, the GI50 (A549) was > 100 µM (inactive), the GI50 (BT-549) was > 100 µM (inactive) and the GI50 (CAKI-1) was > 100 µM (inactive). The GI50 (EKVX) was > 100 µM (inactive), the GI50 (HCC 2998) was > 100 µM (inactive) and the GI50 (HCT-116) was > 100 µM (inactive). For the same molecule, the GI50 (Hs-578T) was > 100 µM (inactive), the GI50 (M14) was > 100 µM (inactive) and the GI50 (MDA-MB-231) was > 100 µM (inactive). For the same molecule, the GI50 (MDA-MB-435) was > 100 µM (inactive), the GI50 (MDA-N) was > 100 µM (inactive) and the GI50 (NCI-H23) was > 100 µM (inactive). The GI50 (OVCAR-3) was > 100 µM (inactive), the GI50 (OVCAR-8) was > 100 µM (inactive) and the GI50 (SF-268) was > 100 µM (inactive). For the same molecule, the GI50 (SK-MEL-2) was > 100 µM (inactive), the GI50 (SNB-75) was > 100 µM (inactive) and the GI50 (SW-620) was > 100 µM (inactive). The GI50 (UO-31) was > 100 µM (inactive).
